Data: patent US20050107394A1, “Novel use of selective pde5 inhibitors” (priority 2001, published 2005)

System: rabbits
Test: Lung damage after inhaled bleomycin (characterisation of the model)
Assay type: in vivo, rabbit
Description: Healthy rabbits of both sexes were pretreated orally with a gyrase inhibitor (Baytril®) for one week. Ten animals pretreated in this way were not treated with bleomyin and served as control, and, on the day of exposure, the others were anaesthetized with a Ketanest®/Rompun® mixture, intubated intratracheally and ventilated mechanically. An ultrasonic nebulizer (MMAD 2.5 μm) was used to administer by inhalation exactly 1.8 U/kg of bodyweight of bleomycin under volume-controlled ventilation. After 4, 8, 16, 24, 32 and 64 days (in each case n≧5) post exposure, the animals were again anaesthetized, provided with an arterial access (right carotid artery) and underwent bodyweight-adapted ventilation via a tracheostomy in a volume-controlled method. The arterial pO2 and pCO2, and the static compliance of the lung were measured (by recording the intrathoracic pressure and with slow inflation/deflation manoeuvres). Subsequently, the lungs of these animals were dissected and perfused with a Krebs Hensefeit buffer. Under these conditions, the capillary filtraton coefficient (cfc) was then found from the weight gain of the organ after increasing the pulmonary venous pressure by 7.5 mmHg, and the peak ventilation pressure was found. After completion of these measurements, the left main bronchus was ligated in the end-inspiratory position and a bronchoalveolar lavage (BAL) was performed on the right lung. Subsequently, the large vessels and airways of the right lung were dissected off and the organ was homogenized. The left lung was perfusion-fixed with 4% formalin solution while maintaining a pressure gradient of 25 cm H2O and was then stored in 4% formalin until embedded. Firstly, the cells were removed from the BAL, counted and differentiated via a Papenheim stain. The cell-free BAL supernatant was then aliquoted and submitted to further analysis of the surfactant and coagulation properties and a determination of the matrix metallo proteinases (MMPs) and their inhibitors (TIMPs) and of soluble collagen. Bronchoalveolar deposition of 1.8 U/kg of bodyweight of bleomycin led initially to development of an ARDS-like event, with a massive restriction of gas exchange (paO2/FiO2 of >500 mmHg in the controls reduced to ˜110 mmHg on day 4), ground-glass opacities over all sections of the lung in the HRCT and an increase of about 5-fold in the capillary filtration coefficient (cfc). In the later phase of bleomycin-induced lung damage there was then development of pronounced fibrosis which could be confirmed on the basis of the increase in soluble collagen in the BAL and the hydroxyproline in the tissue, on the basis of the histological specimens and of the HRCT findings. […] Consistent with this, a pronounced increase in the extracellular matrix and an alveolar and also interstitial ingress of fibroblasts was observable in the histological sections. Besides the homogeneously distributed zones of fibrosis there were also thin hyperdistended sections of lung with a honeycomb appearance.

bleomycin
concentration of soluble collagen in the BAL (after 64 days): 7000 ± 2200 ng/mL
paO2/FiO2 (day 4 after 1.8 U/kg bleomycin by inhalation, controls >500 mmHg): ~110 mmHg
concentration of soluble collagen in the BAL (maximum) (day 16 after bleomycin, controls 1.1±0.4): 38300 ± 12500 ng/mL
capillary filtration coefficient (cfc), increase (early phase after 1.8 U/kg bleomycin): about 5 fold
hydroxyproline content of the tissue (from day 16 onwards): approximately doubled
